Patent publication US9833497B2, “Human originated EGF domain proteins and use of the same” (CHENGDU SOURCEBIO LIMITED-LIABILITY COMPANY, priority 2013, dated 2017)

Legend:
Assay type in all cases: cell-based
Citrobacter diversus = test: MIC against Gram-negative bacteria: Citrobacter diversus; conditions: 5×10^5 CFU/mL
How it was run: (§1)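 First, colonies from LB agar were grown in LB at 37° C, 185 rpm, to McFarland turbidity 0.5, then centrifuged and resuspended in fresh LB. Next, wells received 5×10^5 CFU/mL bacteria plus two-fold serially diluted EGF domain protein (triplicate). Finally, plates were shaken at 37° C and the no-growth concentration taken as MIC.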

Proteus vulgaris = test: MIC against Gram-negative bacteria: Proteus vulgaris; conditions: 5×10^5 CFU/mL
How it was run: as §1

Enterobacter cloacae = test: MIC against Gram-negative bacteria: Enterobacter cloacae; conditions: 5×10^5 CFU/mL
How it was run: as §1

Pseudomonas aeruginosa = test: MIC against Gram-negative bacteria: Pseudomonas aeruginosa; conditions: 5×10^5 CFU/mL
How it was run: as §1

Serratia marcescens = test: MIC against Gram-negative bacteria: Serratia marcescens; conditions: 5×10^5 CFU/mL
How it was run: as §1

E. coli DH5α = test: Antibacterial activity: MIC and growth curve against E. coli DH5α in 96-well plate; conditions: minimal inhibitory concentration against E. coli DH5α; 96-well plate, 5×10^5 CFU/mL, 37° C., judged after 8 h
How it was run: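 MIC taken as lowest protein level with no bacterial growth, tracked by A600 every 30 min during 37 °C, 175 rpm culture. Two-fold protein series 50-12.5 μg/mL final, triplicate wells, against 5×10^5 CFU/mL of LB-washed mid-log cells.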

E. coli BL21 = test: MIC against Gram-negative bacteria: E. coli BL21; conditions: 5×10^5 CFU/mL
How it was run: as §1

Klebsiella pneumonia = test: MIC against Gram-negative bacteria: Klebsiella pneumonia; conditions: 5×10^5 CFU/mL
How it was run: as §1

Moraxella catarrhalis = test: MIC against Gram-negative bacteria: Moraxella catarrhalis; conditions: 5×10^5 CFU/mL
How it was run: as §1

Proteus mirabilis = test: MIC against Gram-negative bacteria: Proteus mirabilis; conditions: 5×10^5 CFU/mL
How it was run: as §1

Aeromonas hydrophila = test: MIC against Gram-negative bacteria: Aeromonas hydrophila; conditions: 5×10^5 CFU/mL
How it was run: as §1

[1] = Citrobacter diversus, 10 h cultivation at 37° C.
[2] = Proteus vulgaris, 10 h cultivation at 37° C.
[3] = Enterobacter cloacae, 10 h cultivation at 37° C.
[4] = Pseudomonas aeruginosa, 10 h cultivation at 37° C.
[5] = Serratia marcescens, 10 h cultivation at 37° C.
[6] = E. coli BL21, 10 h cultivation at 37° C.
[7] = Klebsiella pneumonia, 10 h cultivation at 37° C.
[8] = Moraxella catarrhalis, 10 h cultivation at 37° C.
[9] = Proteus mirabilis, 10 h cultivation at 37° C.
[10] = Aeromonas hydrophila, 10 h cultivation at 37° C.
[11] = 10 h cultivation at 37° C., two-fold serial dilution

| Substance | MIC (E. coli DH5α) | MIC (μg/mL) C. diversus (Citrobacter diversus; 10 h cultivation at 37° C.) | MIC (μg/mL) P. vulgaris (Proteus vulgaris; 10 h cultivation at 37° C.) | MIC (μg/mL) E. cloacae (Enterobacter cloacae; 10 h cultivation at 37° C.) | MIC (μg/mL) P. aeruginosa (Pseudomonas aeruginosa; 10 h cultivation at 37° C.) | MIC (μg/mL) S. marcescens (Serratia marcescens; 10 h cultivation at 37° C.) | MIC (μg/mL) E. coli BL21 (E. coli BL21; [6]) | MIC (μg/mL) K. pneumonia (Klebsiella pneumonia; 10 h cultivation at 37° C.) | MIC (μg/mL) M. catarrhalis (Moraxella catarrhalis; 10 h cultivation at 37° C.) | MIC (μg/mL) P. mirabilis (Proteus mirabilis; 10 h cultivation at 37° C.) | MIC (μg/mL) A. hydrophila (Aeromonas hydrophila; 10 h cultivation at 37° C.) | other results |
| --- | --- | --- | --- | --- | --- | --- | --- | --- | --- | --- | --- | --- |
| PRT603 (CHCHPQGSKDTVCDQVTGQCPCHGEVSGRRCDRCLAGYFGFPSCHP; listed as Homo sapiens) | 25 µg/mL |  |  |  |  |  |  |  |  |  |  | MIC C. diversus (Citrobacter diversus; 96-well plate, 37° C., 10 h): 12.5 µg/mL; MIC P. vulgaris (Proteus vulgaris; 96-well plate, 37° C., 10 h): 50 µg/mL; MIC E. cloacae (Enterobacter cloacae; 96-well plate, 37° C., 10 h): 25 µg/mL; MIC P. aeruginosa (Pseudomonas aeruginosa; 96-well plate, 37° C., 10 h): 25 µg/mL; MIC S. marcescens (Serratia marcescens; 96-well plate, 37° C., 10 h): 12.5 µg/mL; MIC E. coli BL21 (E. coli BL21; 96-well plate, 37° C., 10 h): 50 µg/mL; MIC K. pneumonia (Klebsiella pneumonia; 96-well plate, 37° C., 10 h): 12.5 µg/mL; MIC M. catarrhalis (Moraxella catarrhalis; 96-well plate, 37° C., 10 h): 50 µg/mL; MIC P. mirabilis (Proteus mirabilis; 96-well plate, 37° C., 10 h): 12.5 µg/mL; MIC A. hydrophila (Aeromonas hydrophila; 96-well plate, 37° C., 10 h): 50 µg/mL |
| PRT1465 (CECDSLGTLPGTICDPISGQCLCVPNRQGRRCNQCQPGFYISPGNATGCLP; listed as Homo sapiens) | 12.5 µg/mL |  |  |  |  |  |  |  |  |  |  | MIC against C. diversus (Citrobacter diversus; [1]): 25 µg/mL; MIC against P. vulgaris (Proteus vulgaris; [2]): 25 µg/mL; MIC against E. cloacae (Enterobacter cloacae; [3]): 25 µg/mL; MIC against P. aeruginosa (Pseudomonas aeruginosa; [4]): 50 µg/mL; MIC against S. marcescens (Serratia marcescens; [5]): 12.5 µg/mL; MIC against E. coli BL21 (E. coli BL21; [6]): 25 µg/mL; MIC against K. pneumonia (Klebsiella pneumonia; [7]): 12.5 µg/mL; MIC against M. catarrhalis (Moraxella catarrhalis; [8]): 12.5 µg/mL; MIC against P. mirabilis (Proteus mirabilis; [9]): 50 µg/mL; MIC against A. hydrophila (Aeromonas hydrophila; [10]): 50 µg/mL |
| PRT870 (CECFGHSNRCSYIDLLNTVICVSCKHNTRGQHCELCRLGYFRNASAQLDDENVCIE; listed as Homo sapiens) | 12.5 µg/mL | 25 µg/mL | 12.5 µg/mL | 25 µg/mL | 100 µg/mL | 50 µg/mL | 50 µg/mL | 50 µg/mL | 50 µg/mL | 25 µg/mL | 12.5 µg/mL |  |
| PRT801 (FGYGCQQLCECMNNSTCDHVTGTCYCSPGFKGIRCD; listed as Homo sapiens) | 25 µg/mL | 12.5 µg/mL | 12.5 µg/mL | 12.5 µg/mL | 50 µg/mL | 12.5 µg/mL | 12.5 µg/mL | 25 µg/mL | 12.5 µg/mL | 12.5 µg/mL | 25 µg/mL |  |
| PRT847 (CDCSPHGALSIPCNSSGKCQCKVGVIGSICDRCQDGYYGFSKNGCLP; listed as Homo sapiens) | 12.5 µg/mL | 25 µg/mL | 12.5 µg/mL | 25 µg/mL | 12.5 µg/mL | 12.5 µg/mL | 25 µg/mL | 12.5 µg/mL | 12.5 µg/mL | 12.5 µg/mL | 12.5 µg/mL |  |
| PRT466 (RHTACLSSPCLNGGTCHLIVATGTTVCACPPGFAGRLCN; listed as Homo sapiens) | 12.5 µg/mL |  |  |  |  |  |  |  |  |  |  | MIC against C. diversus (Citrobacter diversus; 96-well plate, 37° C., 10 h): 12.5 µg/mL; MIC against P. vulgaris (Proteus vulgaris; 96-well plate, 37° C., 10 h): 50 µg/mL; MIC against E. cloacae (Enterobacter cloacae; 96-well plate, 37° C., 10 h): 12.5 µg/mL; MIC against P. aeruginosa (Pseudomonas aeruginosa; 96-well plate, 37° C., 10 h): 12.5 µg/mL; MIC against S. marcescens (Serratia marcescens; 96-well plate, 37° C., 10 h): 12.5 µg/mL; MIC against E. coli BL21 (E. coli BL21; 96-well plate, 37° C., 10 h): 50 µg/mL; MIC against K. pneumonia (Klebsiella pneumonia; 96-well plate, 37° C., 10 h): 50 µg/mL; MIC against M. catarrhalis (Moraxella catarrhalis; 96-well plate, 37° C., 10 h): 50 µg/mL; MIC against P. mirabilis (Proteus mirabilis; 96-well plate, 37° C., 10 h): 12.5 µg/mL; MIC against A. hydrophila (Aeromonas hydrophila; 96-well plate, 37° C., 10 h): 50 µg/mL |
| PRT1352 (SEPECPGNCHLRGRCIDGQCICDDGFTGEDCS; listed as Homo sapiens) | 12.5 µg/mL |  |  |  |  |  |  |  |  |  |  | MIC against C. diversus (Citrobacter diversus; [1]): 50 µg/mL; MIC against P. vulgaris (Proteus vulgaris; [2]): 50 µg/mL; MIC against E. cloacae (Enterobacter cloacae; [3]): 12.5 µg/mL; MIC against P. aeruginosa (Pseudomonas aeruginosa; [4]): 12.5 µg/mL; MIC against S. marcescens (Serratia marcescens; [5]): 25 µg/mL; MIC against E. coli BL21 (E. coli BL21; [6]): 12.5 µg/mL; MIC against K. pneumonia (Klebsiella pneumonia; [7]): 12.5 µg/mL; MIC against M. catarrhalis (Moraxella catarrhalis; [8]): 12.5 µg/mL; MIC against P. mirabilis (Proteus mirabilis; [9]): 25 µg/mL; MIC against A. hydrophila (Aeromonas hydrophila; [10]): 12.5 µg/mL |
| PRT1369 (ASGSCPDDCNDQGRCVRGRCVCFPGYTGPSC; listed as Homo sapiens) | 12.5 µg/mL |  |  |  |  |  |  |  |  |  |  | MIC against C. diversus (Citrobacter diversus; [1]): 12.5 µg/mL; MIC against P. vulgaris (Proteus vulgaris; [2]): 12.5 µg/mL; MIC against E. cloacae (Enterobacter cloacae; [3]): 25 µg/mL; MIC against P. aeruginosa (Pseudomonas aeruginosa; [4]): 12.5 µg/mL; MIC against S. marcescens (Serratia marcescens; [5]): 25 µg/mL; MIC against E. coli BL21 (E. coli BL21; [6]): 12.5 µg/mL; MIC against K. pneumonia (Klebsiella pneumonia; [7]): 12.5 µg/mL; MIC against M. catarrhalis (Moraxella catarrhalis; [8]): 12.5 µg/mL; MIC against P. mirabilis (Proteus mirabilis; [9]): 25 µg/mL; MIC against A. hydrophila (Aeromonas hydrophila; [10]): 12.5 µg/mL |
| PRT753 (RKDVCKSTHHGCEHICVNNGNSYICKCSEGFVLAEDGRRCK; listed as Homo sapiens) | 25 µg/mL | 12.5 µg/mL | 25 µg/mL | 12.5 µg/mL | 12.5 µg/mL | 50 µg/mL | 50 µg/mL | 50 µg/mL | 50 µg/mL | 12.5 µg/mL | 50 µg/mL |  |
| PRT1116 (DIDECASRPCHHGATCRNLADRYECHCPLGYAGVTCE; listed as Homo sapiens) | 25 µg/mL |  |  |  |  |  |  |  |  |  |  | MIC C. diversus (Citrobacter diversus; [11]): 12.5 µg/mL; MIC P. vulgaris (Proteus vulgaris; [11]): 25 µg/mL; MIC E. cloacae (Enterobacter cloacae; [11]): 25 µg/mL; MIC P. aeruginosa (Pseudomonas aeruginosa; [11]): 25 µg/mL; MIC S. marcescens (Serratia marcescens; [11]): 12.5 µg/mL; MIC E. coli BL21 (E. coli BL21; [11]): 12.5 µg/mL; MIC K. pneumonia (Klebsiella pneumonia; [11]): 12.5 µg/mL; MIC M. catarrhalis (Moraxella catarrhalis; [11]): 25 µg/mL; MIC P. mirabilis (Proteus mirabilis; [11]): 50 µg/mL; MIC A. hydrophila (Aeromonas hydrophila; [11]): 25 µg/mL |
| PRT891 (DVDECASTPCKNGAKCLDGPNTYTCVCTEGYTGTHCE; listed as Homo sapiens) | 12.5 µg/mL | 12.5 µg/mL | 25 µg/mL | 12.5 µg/mL | 12.5 µg/mL | 50 µg/mL | 25 µg/mL | 25 µg/mL | 25 µg/mL | 12.5 µg/mL | 25 µg/mL |  |
